Laboratory results published in patent US20060035811A1, “Methods of treating dry eye disease with lantibiotics” (priority 2002, published 2006).

Tested on: New Zealand (albino) rabbits
Experiment: Tear secretion in albino rabbits after topical instillation (Schirmer strips)
Type: in vivo
Conditions: for Tear secretion % Mean (% of baseline) / Tear secretion (mm) Mean: 1×50 microliters, right eye
Procedure: New Zealand (albino) rabbits were the experimental model used to test the action of duramycin. Four animals were involved for each formulation: Duramycin was used in a formulation at 0.5 mg/ml dissolved in saline (0.9% sodium chloride) at pH between 6 and 7 and was compared with 0.9% sodium chloride and with 0.9% sodium chloride at pH between 6 and 7 (vehicle). Animals were randomly allocated into 3 groups of 4 animals each by a computer controlled program.
Aliquots (1×50 microliters) were administered using a micropipette into the right eyes while the left eyes remained untreated. Sampling was performed in the right eyes for a constant interval of 15 seconds before the instillation and at 15, 30, 60, 120, and 180 minutes after instillation. Tear secretion was collected and measured on treated eyes using Schimer strips.
Tear secretion, measured as the tear migration onto Schirmer strips for 15 seconds, was expressed in millimeters (mm) and in percents (%) of baseline values. The % of baseline values was the mean of individual %. T max is the time when the maximum mean value is obtained and is expressed in minutes (min).
Mean AUC0-180 min value (area under the curve from baseline to 180 min) is the mean of individual AUC0-180 min values calculated using the trapezoidal rule and is expressed in mm×min and in %×min.

[1] = 15 min after instillation, 0.5 mg/ml
[2] = 30 min after instillation, 0.5 mg/ml
[3] = 60 min after instillation, 0.5 mg/ml
[4] = 120 min after instillation, 0.5 mg/ml
[5] = 180 min after instillation, 0.5 mg/ml
[6] = baseline to 180 min, trapezoidal rule, mean of individual values, 0.5 mg/ml

Substance: duramycin
- Tear secretion % Mean (% of baseline) (0 min (before instillation, baseline), 0.5 mg/ml): 100.0%
- Tear secretion (mm) Mean (0 min (before instillation, baseline), 0.5 mg/ml, Schirmer strip 15 seconds): 2.8 mm
- Increase of tear secretion compared with saline, based on AUC0-180 min in % (0.5 mg/ml vs saline treatment): 3.56 times
- Increase of tear secretion compared with saline, based on AUC0-180 min in mm (0.5 mg/ml vs saline treatment): 1.92 times
- Increase of tear secretion compared with saline, based on maximum value in % (0.5 mg/ml vs saline treatment): 4.59 times
- Increase of tear secretion compared with saline, based on maximum value in mm (0.5 mg/ml vs saline treatment): 2.47 times
- Tear secretion % Mean (% of baseline) [1]: 329.2%
- Tear secretion (mm) Mean [1]: 6.0 mm
- Tear secretion % Mean (% of baseline) [2]: 459.4%
- Tear secretion (mm) Mean [2]: 9.4 mm
- Tear secretion % Mean (% of baseline) [3]: 260.4%
- Tear secretion (mm) Mean [3]: 4.8 mm
- Tear secretion % Mean (% of baseline) [4]: 157.3%
- Tear secretion (mm) Mean [4]: 3.5 mm
- Tear secretion % Mean (% of baseline) [5]: 245.8%
- Tear secretion (mm) Mean [5]: 4.9 mm
- Tmax (time when the maximum mean tear secretion is obtained) (after instillation, 0.5 mg/ml): 30 min
- AUC 0-180 of tear secretion [6]: 891.6 mm × min
- AUC 0-180 of tear secretion (% of baseline) [6]: 44554.7 % × min
